Assays:
[1] = target: T1, Deoxyribonuclease-1 (Homo sapiens, UniProt P24855); experiment: Inhibition of DNase 1 (unknown origin) using (FAM)-labeled dsDNA as substrate
T1 sequence (P24855 whole entry): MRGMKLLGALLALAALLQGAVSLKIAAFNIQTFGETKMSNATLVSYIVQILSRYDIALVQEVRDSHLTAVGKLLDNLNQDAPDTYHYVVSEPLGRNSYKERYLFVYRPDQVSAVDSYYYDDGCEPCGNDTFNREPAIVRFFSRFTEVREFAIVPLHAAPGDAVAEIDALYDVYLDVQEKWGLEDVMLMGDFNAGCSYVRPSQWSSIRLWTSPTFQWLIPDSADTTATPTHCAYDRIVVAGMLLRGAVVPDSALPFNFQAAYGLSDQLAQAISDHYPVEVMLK

[2] = target: T1, Deoxyribonuclease-1; experiment: Inhibition of DNase 1 (unknown origin)

| Compound | IC50 [1] [nM] | IC50 [2] [nM] |
| --- | --- | --- |
| CN(C)c1ccc(C(=C2C=CC(=[N+](C)C)C=C2)c2ccc(N(C)C)cc2)cc1 [GENTIAN VIOLET] | 350 |  |
| O=C(O)c1ccc(Nc2nc(Cl)nc(Cl)n2)cc1-c1c2ccc(=O)cc-2oc2cc(O)ccc12 |  | > 300000 |
